Data from patent US12503438B2, “Compounds for the treatment of kinase-dependent disorders” (Exelixis, Inc., priority 2019, dated 2025).
pIC50: −log10 of the molar value.

Tests used:
[1] = biological target: Met (Homo sapiens, UniProt P08581); assay: Met autophosphorylation ELISA in PC-3 cells; assay type: cell-based; parameters: endogenous in cells; host or cells: PC-3 prostate cancer cells (ATCC #CRL-1435); conditions: cellular activity, HGF-stimulated, phospho-Met ELISA, read-out: c-Met IC50
Outline: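 Phospho-Met (panTyr) sandwich ELISA on lysates of PC-3 cells given 100 ng/mL HGF for 10 min after 1 h compound exposure (8-point curve, 0.3% DMSO) following 3 h serum starvation. Normalised to HGF-stimulated DMSO and reference-inhibitor wells; 4-parameter logistic IC50.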

[2] = biological target: T1, Mer (Homo sapiens, UniProt Q12866); assay: Mer autophosphorylation ELISA in transient transfected 293A cells; assay type: cell-based; conditions: cellular activity; MERTK-transfected 293A cells, phospho-Mer ELISA
T1 construct: host or cells: 293A cells (Thermo Fisher #R70507)
T1 sequence (Q12866 21-999): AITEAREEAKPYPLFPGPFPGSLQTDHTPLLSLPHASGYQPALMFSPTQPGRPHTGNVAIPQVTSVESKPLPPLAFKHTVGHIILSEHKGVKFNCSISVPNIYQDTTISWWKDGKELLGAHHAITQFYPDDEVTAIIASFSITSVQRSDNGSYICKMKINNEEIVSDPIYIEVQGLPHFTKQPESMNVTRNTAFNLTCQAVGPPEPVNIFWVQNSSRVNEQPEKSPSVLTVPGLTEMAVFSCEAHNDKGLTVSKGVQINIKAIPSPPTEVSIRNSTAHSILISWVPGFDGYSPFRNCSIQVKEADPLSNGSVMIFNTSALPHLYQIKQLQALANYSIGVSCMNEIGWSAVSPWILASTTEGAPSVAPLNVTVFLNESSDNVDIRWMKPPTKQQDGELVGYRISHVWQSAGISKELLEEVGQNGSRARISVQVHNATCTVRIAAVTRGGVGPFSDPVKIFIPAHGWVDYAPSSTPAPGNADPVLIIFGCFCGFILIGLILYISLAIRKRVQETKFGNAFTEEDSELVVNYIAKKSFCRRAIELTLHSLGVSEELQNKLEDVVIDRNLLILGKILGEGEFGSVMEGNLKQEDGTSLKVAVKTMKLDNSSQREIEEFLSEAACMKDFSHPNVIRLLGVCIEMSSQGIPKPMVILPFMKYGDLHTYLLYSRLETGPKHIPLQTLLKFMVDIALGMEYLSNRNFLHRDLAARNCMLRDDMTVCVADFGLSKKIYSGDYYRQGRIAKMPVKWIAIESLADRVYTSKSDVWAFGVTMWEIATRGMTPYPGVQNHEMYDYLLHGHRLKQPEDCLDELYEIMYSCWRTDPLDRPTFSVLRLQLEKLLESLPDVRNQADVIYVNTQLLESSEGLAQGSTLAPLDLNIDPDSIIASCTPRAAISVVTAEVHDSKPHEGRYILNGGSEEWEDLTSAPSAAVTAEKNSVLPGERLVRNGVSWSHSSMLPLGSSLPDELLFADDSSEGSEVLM
Outline: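 293A cells transiently transfected with human MERTK DNA, then treated 1 h with 8-point compound dilutions in serum-free medium (0.3% DMSO). Phospho-Mer in lysates quantified by sandwich ELISA against phospho-Mer standard; normalised to DMSO (100%) and reference inhibitor (0%), IC50 from 4-parameter logistic fit.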

Sequence of Met (P08581 25-1390): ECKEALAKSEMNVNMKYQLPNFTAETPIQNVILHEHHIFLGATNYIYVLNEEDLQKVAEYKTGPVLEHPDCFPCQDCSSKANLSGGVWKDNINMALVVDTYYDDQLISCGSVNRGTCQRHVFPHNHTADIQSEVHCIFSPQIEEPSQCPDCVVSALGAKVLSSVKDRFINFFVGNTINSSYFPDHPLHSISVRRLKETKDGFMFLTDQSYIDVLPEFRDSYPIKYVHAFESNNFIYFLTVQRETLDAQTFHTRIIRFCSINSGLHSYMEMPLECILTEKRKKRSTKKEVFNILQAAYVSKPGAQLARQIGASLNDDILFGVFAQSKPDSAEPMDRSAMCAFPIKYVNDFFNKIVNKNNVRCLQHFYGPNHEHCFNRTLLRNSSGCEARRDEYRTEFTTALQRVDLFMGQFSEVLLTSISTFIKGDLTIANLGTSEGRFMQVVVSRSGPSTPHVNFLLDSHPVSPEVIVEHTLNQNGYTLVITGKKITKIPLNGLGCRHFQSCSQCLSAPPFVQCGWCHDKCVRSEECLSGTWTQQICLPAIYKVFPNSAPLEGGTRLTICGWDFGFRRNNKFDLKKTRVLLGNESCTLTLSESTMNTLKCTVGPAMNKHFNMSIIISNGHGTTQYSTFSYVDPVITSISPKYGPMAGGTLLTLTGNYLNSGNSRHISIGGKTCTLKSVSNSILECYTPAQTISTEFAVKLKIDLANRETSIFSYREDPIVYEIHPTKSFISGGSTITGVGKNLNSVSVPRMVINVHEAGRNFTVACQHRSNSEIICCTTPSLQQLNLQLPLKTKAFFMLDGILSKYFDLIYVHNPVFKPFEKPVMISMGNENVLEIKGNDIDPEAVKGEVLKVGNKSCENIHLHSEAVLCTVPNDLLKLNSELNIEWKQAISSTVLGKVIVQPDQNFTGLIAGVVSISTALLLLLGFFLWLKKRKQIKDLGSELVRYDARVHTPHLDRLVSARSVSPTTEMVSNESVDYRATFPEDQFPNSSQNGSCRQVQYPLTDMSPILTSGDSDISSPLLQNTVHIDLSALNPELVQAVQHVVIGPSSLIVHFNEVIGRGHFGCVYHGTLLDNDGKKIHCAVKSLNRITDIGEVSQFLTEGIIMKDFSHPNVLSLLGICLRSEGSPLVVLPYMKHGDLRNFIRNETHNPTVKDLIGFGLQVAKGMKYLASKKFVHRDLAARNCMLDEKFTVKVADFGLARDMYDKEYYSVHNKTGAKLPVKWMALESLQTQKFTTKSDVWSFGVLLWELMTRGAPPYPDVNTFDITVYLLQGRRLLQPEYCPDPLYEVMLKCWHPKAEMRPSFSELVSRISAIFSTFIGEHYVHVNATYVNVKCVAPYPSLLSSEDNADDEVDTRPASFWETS

pIC50 [1] | pIC50 [2] | Structure (SMILES)
7.00 to 8.00 | 7.00 to 8.00 | CNC(=O)c1cc2c(Oc3ccc(NC(=O)C4(C(=O)Nc5ccc(F)cc5)CC4)cc3)ccnc2cc1-c1cnn(C)c1 [Compound 77, 1-N′-(4-Fluorophenyl)-1-N-[4-[6-(methylcarbamoyl)-7-(1-methylpyrazol-4-yl)quinolin-4-yl]oxyphenyl]cyclopropane-1,1-dicarboxamide]
≥ 8.00 | 7.00 to 8.00 | Cc1cc2c(Oc3ccc(NC(=O)C4(C(=O)Nc5ccc(F)cc5)CC4)cc3)ccnc2cc1-c1cnn(C)c1 [Compound 78, 1-N′-(4-Fluorophenyl)-1-N-[4-[6-methyl-7-(1-methylpyrazol-4-yl)quinolin-4-yl]oxyphenyl]cyclopropane-1,1-dicarboxamide]
7.00 to 8.00 | 7.00 to 8.00 | CS(=O)(=O)n1cc(-c2ccc3c(Oc4ccc(NC(=O)C5(C(=O)Nc6ccc(F)cc6)CC5)cc4)ccnc3c2)cn1 [Compound 79, 1-N′-(4-Fluorophenyl)-1-N-[4-[7-(1-methylsulfonylpyrazol-4-yl)quinolin-4-yl]oxyphenyl]cyclopropane-1,1-dicarboxamide]
6.52 to 7.00 | < 6.52 | CC1Cc2cc(F)ccc2N1C(=O)C1(C(=O)Nc2ccc(Oc3ccnc4cc(-c5cnn(C)c5)ccc34)cc2)CC1 (centres unmarked) [Compound 80, 1-(5-Fluoro-2-methyl-2,3-dihydroindole-1-carbonyl)-N-[4-[7-(1-methylpyrazol-4-yl)quinolin-4-yl]oxyphenyl]cyclopropane-1-carboxamide]
7.00 to 8.00 | 6.52 to 7.00 | Cn1cc(-c2ccc3c(Oc4ccc(NC(=O)C5(C(=O)N6CCc7cc(F)ccc76)CC5)cc4)ccnc3c2)cn1 [Compound 81, 1-(5-Fluoro-2,3-dihydroindole-1-carbonyl)-N-[4-[7-(1-methylpyrazol-4-yl)quinolin-4-yl]oxyphenyl]cyclopropane-1-carboxamide]
6.52 to 7.00 | 7.00 to 8.00 | Cc1cc(F)cc(C)c1NC(=O)C1(C(=O)Nc2ccc(Oc3ccnc4cc(-c5cnn(C)c5)ccc34)cc2)CC1 [Compound 82, 1-N′-(4-Fluoro-2,6-dimethylphenyl)-1-N-[4-[7-(1-methylpyrazol-4-yl)quinolin-4-yl]oxyphenyl]cyclopropane-1,1-dicarboxamide]
7.00 to 8.00 | 6.52 to 7.00 | O=C(Nc1ccc(F)cc1)C1(C(=O)Nc2ccc(Oc3ccnc4cc(C5CCNC5)ccc34)cc2)CC1 (centres unmarked) [Compound 83, 1-N′-(4-Fluorophenyl)-1-N-[4-(7-pyrrolidin-3-ylquinolin-4-yl)oxyphenyl]cyclopropane-1,1-dicarboxamide]
7.00 to 8.00 | 7.00 to 8.00 | O=C(Nc1ccc(F)cc1)C1(C(=O)Nc2ccc(Oc3ccnc4cc(-c5ccn(C(F)F)n5)ccc34)cc2)CC1 [Compound 84, 1-N-[4-[7-[1-(Difluoromethyl)pyrazol-3-yl]quinolin-4-yl]oxyphenyl]-1-N′-(4-fluorophenyl)cyclopropane-1,1-dicarboxamide]
7.00 to 8.00 | 7.00 to 8.00 | O=C(Nc1ccc(F)cc1)C1(C(=O)Nc2ccc(Oc3ccnc4cc(-c5ccccn5)ccc34)cc2)CC1 [Compound 85, 1-N′-(4-Fluorophenyl)-1-N-[4-(7-pyridin-2-ylquinolin-4-yl)oxyphenyl]cyclopropane-1,1-dicarboxamide]
7.00 to 8.00 | 7.00 to 8.00 | Cn1ncc(-c2ccc3c(Oc4ccc(NC(=O)C5(C(=O)Nc6ccc(F)cc6)CC5)cc4)ccnc3c2)n1 [Compound 86, 1-N′-(4-Fluorophenyl)-1-N-[4-[7-(2-methyltriazol-4-yl)quinolin-4-yl]oxyphenyl]cyclopropane-1,1-dicarboxamide]
7.00 to 8.00 | 7.00 to 8.00 | O=C(Nc1ccc(F)cc1)C1(C(=O)Nc2ccc(Oc3ccnc4cc(-c5ccc[n+]([O-])c5)ccc34)cc2)CC1 [Compound 109, 1-N′-(4-Fluorophenyl)-1-N-[4-[7-(1-oxidopyridin-1-ium-3-yl)quinolin-4-yl]oxyphenyl]cyclopropane-1,1-dicarboxamide]
7.00 to 8.00 | 7.00 to 8.00 | Cc1cc2c(Oc3c(F)cc(NC(=O)C4(C(=O)Nc5ccc(F)cc5)CC4)c(F)c3F)ccnc2cc1-c1cnn(C)c1 [Compound 110, 1-N-(4-Fluorophenyl)-1-N′-[2,3,5-trifluoro-4-[6-methyl-7-(1-methylpyrazol-4-yl)quinolin-4-yl]oxyphenyl]cyclopropane-1,1-dicarboxamide]
6.52 to 7.00 | 7.00 to 8.00 | CN1CCN(c2cc(-c3ccc4c(Oc5ccc(NC(=O)C6(C(=O)Nc7ccc(F)cc7)CC6)cc5)ccnc4c3)ccn2)CC1 [Compound 111, 1-N′-(4-Fluorophenyl)-1-N-[4-[7-[2-(4-methylpiperazin-1-yl)pyridin-4-yl]quinolin-4-yl]oxyphenyl]cyclopropane-1,1-dicarboxamide]
7.00 to 8.00 | 7.00 to 8.00 | Cc1cc2c(Oc3cc(Cl)c(NC(=O)C4(C(=O)Nc5ccc(F)cc5)CC4)cc3F)ccnc2cc1-c1cnn(C)c1 [Compound 112, 1-N′-[2-Chloro-5-fluoro-4-[6-methyl-7-(1-methylpyrazol-4-yl)quinolin-4-yl]oxyphenyl]-1-N-(4-fluorophenyl)cyclopropane-1,1-dicarboxamide]
7.00 to 8.00 | 7.00 to 8.00 | O=C(Nc1ccc(F)cc1)C1(C(=O)Nc2ccc(Oc3ccnc4cc(-c5cccnc5)ccc34)c(F)c2)CC1 [Compound 113, 1-N-(4-Fluorophenyl)-1-N′-[3-fluoro-4-(7-pyridin-3-ylquinolin-4-yl)oxyphenyl]cyclopropane-1,1-dicarboxamide]
7.00 to 8.00 | 7.00 to 8.00 | O=C(Nc1ccc(F)cc1)C1(C(=O)Nc2ccc(Oc3ccnc4cc(-c5ccncn5)ccc34)cc2)CC1 [Compound 114, 1-N′-(4-Fluorophenyl)-1-N-[4-(7-pyrimidin-4-ylquinolin-4-yl)oxyphenyl]cyclopropane-1,1-dicarboxamide]
7.00 to 8.00 | 7.00 to 8.00 | O=C(Nc1ccc(F)cc1)C1(C(=O)Nc2cc(F)c(Oc3ccnc4cc(-c5cccnc5)ccc34)cc2F)CC1 [Compound 115, 1-N′-[2,5-Difluoro-4-(7-pyridin-3-ylquinolin-4-yl)oxyphenyl]-1-N-(4-fluorophenyl)cyclopropane-1,1-dicarboxamide]
7.00 to 8.00 | 7.00 to 8.00 | O=C(Nc1ccc(F)cc1)C1(C(=O)Nc2ccc(Oc3ccnc4cc(-c5cncs5)ccc34)cc2)CC1 [Compound 116, 1-N′-(4-Fluorophenyl)-1-N-[4-[7-(1,3-thiazol-5-yl)quinolin-4-yl]oxyphenyl]cyclopropane-1,1-dicarboxamide]
7.00 to 8.00 | 7.00 to 8.00 | Cn1ccc(-c2ccc3c(Oc4ccc(NC(=O)C5(C(=O)Nc6ccc(F)cc6)CC5)cc4)ccnc3c2)cc1=O [Compound 117, 1-N′-(4-Fluorophenyl)-1-N-[4-[7-(1-methyl-2-oxopyridin-4-yl)quinolin-4-yl]oxyphenyl]cyclopropane-1,1-dicarboxamide]
7.00 to 8.00 | 7.00 to 8.00 | O=C(Nc1ccc(F)cc1)C1(C(=O)Nc2cc(F)c(Oc3ccnc4cc(-c5cnn(C(F)F)c5)ccc34)cc2F)CC1 [Compound 118, 1-N′-[4-[7-[1-(Difluoromethyl)pyrazol-4-yl]quinolin-4-yl]oxy-2,5-difluorophenyl]-1-N-(4-fluorophenyl)cyclopropane-1,1-dicarboxamide]
7.00 to 8.00 | 7.00 to 8.00 | Cn1cc(-c2ccc3c(Oc4ccc(NC(=O)C5(C(=O)Nc6ccc(F)cc6)CC5)cc4)ccnc3c2)ccc1=O [Compound 119, 1-N′-(4-Fluorophenyl)-1-N-[4-[7-(1-methyl-6-oxopyridin-3-yl)quinolin-4-yl]oxyphenyl]cyclopropane-1,1-dicarboxamide]
7.00 to 8.00 | 7.00 to 8.00 | Cc1cc2c(Oc3ccc(NC(=O)C4(C(=O)Nc5ccc(F)cc5)CC4)cc3)ccnc2cc1-c1ncc[nH]1 [Compound 120, 1-N′-(4-Fluorophenyl)-1-N-[4-[7-(1H-imidazol-2-yl)-6-methylquinolin-4-yl]oxyphenyl]cyclopropane-1,1-dicarboxamide]
